Like-named read-outs stand apart in the source and are kept apart here.
Experiments:
[1] = Acute toxicity in ddY mice, intraperitoneal; conditions: mouse, in vivo, ip, ddY mice (10 animals), formulated per Formulation Example 4
Method: To ddY mice (10 animals), a drug containing one of Compound Nos. 1-7 and 9-13 of the present invention formulated in accordance with Formulation Example 4 was intraperitoneally administered, and the LD50 value was measured and found to be at least 100 mg/kg in each case, and at least 50 mg/kg in the case of Compound Nos. 8 and 14 of the present invention.
(§1) The Compound No. 1 of the present invention was preliminarily pulverized by a centrifugal pulverizer. On the other hand, 5 parts by weight of polyoxyethylene (60) hardened castor oil, 0.2 part by weight of silicone and 0.3 part by weight of a polyoxyethylene-polyoxypropylene block polymer were added to 79.5 parts by weight of a physiological saline to obtain an aqueous solution, to which 10 parts by weight of the above pulverized Compound No. 1 of the present invention was added. The mixture was pulverized in a wet system by a sand mill using glass beads (80% of particles having a particle size of not larger than 2 μm). Then, 5 parts by weight of xanthane gum (2% solution) was added thereto to obtain an aqueous suspension.

p-388 leukemia cells [2] = assay: Antitumour activity, P-388 leukemia in BDF1 mice, intraperitoneal-intraperitoneal (Test Example 1); type: in vivo; conditions: Mus musculus, P388, ip, 720 h, read-out: ILS (Increase Life Span); for ILS at 200 mg/kg: 200 mg/kg/day i.p.; for ILS at 400 mg/kg: 400 mg/kg/day i.p.
Method: To BDF1 mice, p-388 leukemia cells were intraperitoneally inoculated in an amount of 1×10^6 cells/mouse. A test drug was intraperitoneally administered twice, i.e. one day and four days after the inoculation. […] The increase life span ILS (%)^* was obtained with the number of survival days of mice of the control group to which a physiological saline was administered, being evaluated as 100. The drugs were dispersions obtained by adding small amounts of surfactants (e.g. Tween-80) to the test compounds.
*ILS(%): Increase Life Span, calculated in accordance with the following
formula: ILS(%) = MST - 100, where MST is the ratio of median survival
time of test and control animals.

p-388 leukemia cells [3] = assay: Antitumour activity, P-388 leukemia in BDF1 mice, intraperitoneal-oral (Test Example 2); type: in vivo; conditions: one and four days after i.p. inoculation, Formulation Example 4
From the text: To BDF1 mice, p-388 leukemia cells were intraperitoneally inoculated in an amount of 1×10^6 cells/mouse. A test drug was orally administered twice i.e. one day and four days after the inoculation. […] The test drugs and comparative drugs were formulated in accordance with Formulation Example 4 given hereinafter.
*ILS(%), **Comparative Compound No. 1 and ***Comparative Compound No. 2
are the same as mentioned above in the notes of Table 1.
as §1

[4] = one and four days after i.p. inoculation, 30 days observation
[5] = 100 mg/kg/day i.p., one and four days after i.p. inoculation, 30 days observation

| SMILES | LD50 [1] [mg/kg] | ILS at 200 mg/kg (p-388 leukemia cells [2]; [4]) [%] | other results |
| --- | --- | --- | --- |
| O=C(NC(=O)c1ccccc1[N+](=O)[O-])Nc1ccc(Oc2ccc(Br)nn2)c(Cl)c1 [Compound No. 1, N-(2-nitrobenzoyl)-N'-[4-(6-bromo-3-pyridazinyloxy)3-chlorophenyl]urea] | ≥ 100 | 178 | ILS (Increase Life Span) (p-388 leukemia cells [3]; 200 mg/kg/day oral): 58% |
| O=C(NC(=O)c1ccccc1[N+](=O)[O-])Nc1ccc(Oc2ccc(Br)nn2)c(F)c1 [Compound No. 9, N-(2-nitrobenzoyl)-N'-[4-(6-bromo-3-pyridazinyloxy)-3-fluorophenyl]urea] | ≥ 100 | – | ILS at 100 mg/kg (p-388 leukemia cells [2]): 90%; ILS (Increase Life Span) (p-388 leukemia cells [3]; 200 mg/kg/day oral): 52% |
| O=C(NC(=O)c1ccccc1Cl)Nc1ccc(Oc2ccc(Cl)nn2)c(Cl)c1 [Comparative Compound No. 1, N--(2chlorobenzoyl)-N'--[3chloro-4-(3-chloro-6-pyridazinyloxy)phenyl]urea, reference compound] | – | 24 | ILS at 400 mg/kg (p-388 leukemia cells [2]; [4]): 42%; ILS (Increase Life Span) (p-388 leukemia cells [3]; 800 mg/kg/day oral): 10% |
| O=C(NC(=O)c1ccc([N+](=O)[O-])cc1[N+](=O)[O-])Nc1ccc(Oc2ccc(Br)nn2)c(Cl)c1 [Compound No. 11, N-(2,4-dinitrobenzoyl)-N'-[4-(6-bromo-3-pyridazinyloxy)-3-chlorophenyl]urea] | ≥ 100 | – | ILS at 100 mg/kg (p-388 leukemia cells [2]): 102% |
| Cc1cc(NC(=O)NC(=O)c2ccccc2[N+](=O)[O-])ccc1Oc1ccc(Cl)nn1 [Compound No. 13, N-(2-nitrobenzoyl)-N'-[4-(6-chloro-3-pyridazinyloxy)-3-methylphenyl]urea] | ≥ 100 | – | – |
| O=c1[nH]cc(F)c(=O)[nH]1 [5-Fluorouracil, reference compound] | – | – | ILS at 60 mg/kg (p-388 leukemia cells [2]): 85% |
| O=C(NC(=O)c1ccccc1[N+](=O)[O-])Nc1ccc(Oc2ccc(C(F)(F)F)nn2)c(Cl)c1 [Compound No. 5, N-(2-nitrobenzoyl)-N'-[3-chloro-4-(6-trifluoro-methyl-3-pyridazinyloxy)phenyl]urea] | ≥ 100 | 75 | – |
| O=C(NC(=O)c1ccccc1Cl)Nc1ccc(Oc2ccc(Cl)nn2)c(C(F)(F)F)c1 [Compound No. 12, N-(2-chlorobenzoyl)-N'-[4-(6-chloro-3-pyridazinyloxy)-3-trifluoromethylphenyl]urea] | ≥ 100 | – | – |
| O=C(NC(=O)c1ccc(Cl)cc1[N+](=O)[O-])Nc1ccc(Oc2ccc(Br)nn2)c(Cl)c1 [Compound No. 10, N-(4-chloro-2-nitrobenzoyl)-N'-[4-(6-bromo-3-pyridazinyloxy)-3-chlorophenyl]urea] | ≥ 100 | – | ILS at 100 mg/kg (p-388 leukemia cells [2]): 111%; ILS (Increase Life Span) (p-388 leukemia cells [3]; 400 mg/kg/day oral): 32% |
| O=C(NC(=O)c1ccccc1[N+](=O)[O-])Nc1ccc(Oc2ccc(I)nn2)c(Cl)c1 [Compound No. 3, N-(2-nitrobenzoyl)-N'-[3-chloro-4-(6-iodo-3-pyridazinyloxy)phenyl]urea] | ≥ 100 | – | ILS at 100 mg/kg (p-388 leukemia cells [2]; [5]): 92% |
| O=C(NC(=O)c1ccccc1[N+](=O)[O-])Nc1ccc(Oc2ccc(Cl)nn2)c(Cl)c1 [Compound No. 2, N-(2-nitrobenzoyl)-N'-[3-chloro-4-(6-chloro-3pyridazinyloxy)phenyl]urea] | ≥ 100 | 71 | – |
| O=C(NC(=O)c1ccccc1[N+](=O)[O-])Nc1ccc(Oc2ccc(Br)nn2)c(Br)c1 [Compound No. 6, N-(2-nitrobenzoyl)-N'-[3-bromo-4-(6-bromo-3-pyridazinyloxy)phenyl]urea] | ≥ 100 | – | – |
| O=C(NC(=O)c1ccccc1[N+](=O)[O-])Nc1ccc(Oc2ccc(Cl)nn2)c(C(F)(F)F)c1 [Compound No. 8, N-(2-nitrobenzoyl)-N'-[4-(6-chloro-3-pyridazinyloxy)-3-trifluoromethylphenyl]urea] | ≥ 50 | – | ILS at 100 mg/kg (p-388 leukemia cells [2]; [5]): 75% |
| O=C(NC(=O)c1ccc([N+](=O)[O-])cc1[N+](=O)[O-])Nc1ccc(Oc2ccc(Cl)nn2)c(C(F)(F)F)c1 [Compound No. 14, N-(2,4-dinitrobenzoyl)-N'-[4-(6-chloro-3-pyridazinyloxy)-3-trifluoromethylphenyl]urea] | ≥ 50 | – | – |
| O=C(NC(=O)c1ccccc1[N+](=O)[O-])Nc1ccc(Oc2ccc(Br)nn2)cc1 [Compound No. 7, N-(2-nitrobenzoyl)-N'-[4-(6-bromo-3-pyridazinyloxy)phenyl]urea] | ≥ 100 | – | ILS at 100 mg/kg (p-388 leukemia cells [2]): > 120% |
| O=C(NC(=O)c1c(Cl)cccc1Cl)Nc1ccc(Oc2ccc(Cl)nn2)c(Cl)c1 [Comparative Compound No. 2, N--(2,6dichlorobenzoyl)-N'--[3chloro-4-(3-chloro-6-pyridazinyloxy)phenyl]rea, reference compound] | – | -3 | ILS at 400 mg/kg (p-388 leukemia cells [2]; [4]): 5%; ILS (Increase Life Span) (p-388 leukemia cells [3]; 800 mg/kg/day oral): 0% |
| O=C(NC(=O)c1ccccc1[N+](=O)[O-])Nc1ccc(Oc2cccnn2)c(Cl)c1 [Compound No. 4, N-(2-nitrobenzoyl)-N'-[3-chloro-4-(3-pyridazinyloxy)phenyl]urea] | ≥ 100 | 70 | – |
